In patent US10166279B2, “Vaccine” (Bergen Teknologioverføring AS, priority 2013, dated 2019):
Peptide text beside a SMILES is read from it.

target: T1, GC-C receptor (Homo sapiens, UniProt P25092); test: GC-C receptor T-84 cell assay (toxicity, cGMP levels) of culture filtrates; format: cell-based; conditions: relative to native STh; culture filtrate; ^2 = no detectable toxicity, set to detection limit 0.0014
T1 construct: endogenous in cells; host or cells: T-84 cells
Description: T-84 cells were seeded and cultured in each well of a 24 well plate. After removing the Dulbecco's modified Eagle's medium (DMEM:F12 (1:1) Lonza Walkersville, Inc.), cells were washed 3 times with 0.5 mL DMEM. Cells were incubated with 0.25 mL DMEM containing 1 mM 3-isobutyl-1-methylxanthine (IBMX) for 10 min at 37° C. 0.1 mL of sample (culture filtrate) was added to each well and incubated for 60 min at 37° C. Following incubation, the reaction medium was aspirated, and the cells were lysed with […] HCl at room temperature for 20 min. The lysates were centrifuged at top speed for 10 min and the cGMP levels were measured in control- and agonist-stimulated cells with a direct cGMP enzyme immunoassay kit (Enzo Life Sciences, Inc.) according to the manufacturer's instructions.
The culture filtrate of each mutant was added to the T-84 cells in duplicate, and a serial dilution of culture filtrates with recombinantly expressed native ST was used to generate a standard curve.
Toxicity measured in culture filtrates is a product of intrinsic toxicity (toxicity per mol) and the concentration of the ST mutant. The same is true for antigenicity. […] Since we have no method for accurately measuring ST (mutant) concentrations in culture filtrates, we are not able to directly measure intrinsic toxicities and antigenicities for the ST mutants.
To circumvent this problem we measure toxicity and antigenicity for the ST mutants relative to native ST. This allows us to describe changes in toxicity and antigenicity in mutant culture filtrates. Next, we divide the change in antigenicity by the change in toxicity for each mutant. If the same culture filtrate has been used to measure toxicity and antigenicity this allows us to eliminate the of the concentration.

T1 sequence (P25092 24-1073): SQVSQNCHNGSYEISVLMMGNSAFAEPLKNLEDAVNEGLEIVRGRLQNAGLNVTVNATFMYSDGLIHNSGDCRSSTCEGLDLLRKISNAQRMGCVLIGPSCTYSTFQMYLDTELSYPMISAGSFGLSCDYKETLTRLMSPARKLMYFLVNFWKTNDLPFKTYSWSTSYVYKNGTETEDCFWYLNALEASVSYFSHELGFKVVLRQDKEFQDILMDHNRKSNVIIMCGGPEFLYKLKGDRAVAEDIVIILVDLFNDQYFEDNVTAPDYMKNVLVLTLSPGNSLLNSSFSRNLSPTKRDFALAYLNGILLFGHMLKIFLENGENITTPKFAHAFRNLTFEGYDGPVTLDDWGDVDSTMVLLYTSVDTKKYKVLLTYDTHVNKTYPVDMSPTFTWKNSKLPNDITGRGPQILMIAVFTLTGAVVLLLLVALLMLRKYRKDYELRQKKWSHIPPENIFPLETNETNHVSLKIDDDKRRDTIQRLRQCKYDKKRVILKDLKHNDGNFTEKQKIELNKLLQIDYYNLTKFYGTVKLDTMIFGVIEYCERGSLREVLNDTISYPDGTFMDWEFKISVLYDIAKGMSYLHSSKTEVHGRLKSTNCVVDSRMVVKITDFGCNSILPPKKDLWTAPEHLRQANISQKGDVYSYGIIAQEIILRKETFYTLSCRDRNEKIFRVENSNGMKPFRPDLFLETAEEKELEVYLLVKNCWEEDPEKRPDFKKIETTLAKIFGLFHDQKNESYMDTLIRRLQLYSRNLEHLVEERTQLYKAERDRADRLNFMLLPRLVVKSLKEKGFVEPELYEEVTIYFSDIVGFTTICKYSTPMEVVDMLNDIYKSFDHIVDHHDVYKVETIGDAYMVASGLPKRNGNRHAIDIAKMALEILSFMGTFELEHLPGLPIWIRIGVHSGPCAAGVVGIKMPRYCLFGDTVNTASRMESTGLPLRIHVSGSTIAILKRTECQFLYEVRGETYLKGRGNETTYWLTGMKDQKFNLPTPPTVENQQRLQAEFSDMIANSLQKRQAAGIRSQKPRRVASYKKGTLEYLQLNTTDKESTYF

SMILES	Toxicity
CC(C)C[C@@H]1NC(=O)[C@H](CCC(=O)O)NC(=O)[C@@H]2CSSC[C@@H]3NC(=O)[C@H](CCC(=O)O)NC(=O)[C@@H]4CCCN4C(=O)[C@H](CC(N)=O)NC(=O)[C@H](CSSC[C@H](NC(=O)[C@H](Cc4ccc(O)cc4)NC(=O)[C@H](CC(N)=O)NC(=O)[C@H](CO)NC(=O)[C@H](CO)NC(=O)[C@@H](N)CC(N)=O)C(=O)N2)NC(=O)[C@H](CSSC[C@@H](C(=O)N[C@@H](Cc2ccc(O)cc2)C(=O)O)NC(=O)CNC(=O)[C@H]([C@@H](C)O)NC3=O)NC1=O [Mutant A14E] (HELM PEPTIDE1{N.S.S.N.Y.C.C.E.L.C.C.N.P.E.C.T.G.C.Y}$PEPTIDE1,PEPTIDE1,6:R3-11:R3|PEPTIDE1,PEPTIDE1,7:R3-15:R3|PEPTIDE1,PEPTIDE1,10:R3-18:R3$$$V2.0)	< 0.0014^2
CC(C)C[C@@H]1NC(=O)[C@H](CCC(=O)O)NC(=O)[C@@H]2CSSC[C@@H]3NC(=O)[C@H](Cc4c[nH]cn4)NC(=O)[C@@H]4CCCN4C(=O)[C@H](CC(N)=O)NC(=O)[C@H](CSSC[C@H](NC(=O)[C@H](Cc4ccc(O)cc4)NC(=O)[C@H](CC(N)=O)NC(=O)[C@H](CO)NC(=O)[C@H](CO)NC(=O)[C@@H](N)CC(N)=O)C(=O)N2)NC(=O)[C@H](CSSC[C@@H](C(=O)N[C@@H](Cc2ccc(O)cc2)C(=O)O)NC(=O)CNC(=O)[C@H]([C@@H](C)O)NC3=O)NC1=O [Mutant A14H] (HELM PEPTIDE1{N.S.S.N.Y.C.C.E.L.C.C.N.P.H.C.T.G.C.Y}$PEPTIDE1,PEPTIDE1,6:R3-11:R3|PEPTIDE1,PEPTIDE1,7:R3-15:R3|PEPTIDE1,PEPTIDE1,10:R3-18:R3$$$V2.0)	< 0.0014^2
CC[C@H](C)[C@@H]1NC(=O)[C@@H]2CCCN2C(=O)[C@H](CC(N)=O)NC(=O)[C@@H]2CSSC[C@H](NC(=O)[C@H](Cc3ccc(O)cc3)NC(=O)[C@H](CC(N)=O)NC(=O)[C@H](CO)NC(=O)[C@H](CO)NC(=O)[C@@H](N)CC(N)=O)C(=O)N[C@H]3CSSC[C@H](NC1=O)C(=O)N[C@@H]([C@@H](C)O)C(=O)NCC(=O)N[C@H](C(=O)N[C@@H](Cc1ccc(O)cc1)C(=O)O)CSSC[C@H](NC(=O)[C@H](CC(C)C)NC(=O)[C@H](CCC(=O)O)NC3=O)C(=O)N2 [Mutant A14I] (HELM PEPTIDE1{N.S.S.N.Y.C.C.E.L.C.C.N.P.I.C.T.G.C.Y}$PEPTIDE1,PEPTIDE1,6:R3-11:R3|PEPTIDE1,PEPTIDE1,7:R3-15:R3|PEPTIDE1,PEPTIDE1,10:R3-18:R3$$$V2.0)	< 0.0014^2
CC(C)C[C@@H]1NC(=O)[C@H](CCC(=O)O)NC(=O)[C@@H]2CSSC[C@@H]3NC(=O)[C@H](CCC(N)=O)NC(=O)[C@@H]4CCCN4C(=O)[C@H](CC(N)=O)NC(=O)[C@H](CSSC[C@H](NC(=O)[C@H](Cc4ccc(O)cc4)NC(=O)[C@H](CC(N)=O)NC(=O)[C@H](CO)NC(=O)[C@H](CO)NC(=O)[C@@H](N)CC(N)=O)C(=O)N2)NC(=O)[C@H](CSSC[C@@H](C(=O)N[C@@H](Cc2ccc(O)cc2)C(=O)O)NC(=O)CNC(=O)[C@H]([C@@H](C)O)NC3=O)NC1=O [Mutant A14Q] (HELM PEPTIDE1{N.S.S.N.Y.C.C.E.L.C.C.N.P.Q.C.T.G.C.Y}$PEPTIDE1,PEPTIDE1,6:R3-11:R3|PEPTIDE1,PEPTIDE1,7:R3-15:R3|PEPTIDE1,PEPTIDE1,10:R3-18:R3$$$V2.0)	< 0.0014^2
CC(C)C[C@@H]1NC(=O)[C@H](CCC(=O)O)NC(=O)[C@@H]2CSSC[C@@H]3NC(=O)[C@H](CCCNC(=N)N)NC(=O)[C@@H]4CCCN4C(=O)[C@H](CC(N)=O)NC(=O)[C@H](CSSC[C@H](NC(=O)[C@H](Cc4ccc(O)cc4)NC(=O)[C@H](CC(N)=O)NC(=O)[C@H](CO)NC(=O)[C@H](CO)NC(=O)[C@@H](N)CC(N)=O)C(=O)N2)NC(=O)[C@H](CSSC[C@@H](C(=O)N[C@@H](Cc2ccc(O)cc2)C(=O)O)NC(=O)CNC(=O)[C@H]([C@@H](C)O)NC3=O)NC1=O [Mutant A14R] (HELM PEPTIDE1{N.S.S.N.Y.C.C.E.L.C.C.N.P.R.C.T.G.C.Y}$PEPTIDE1,PEPTIDE1,6:R3-11:R3|PEPTIDE1,PEPTIDE1,7:R3-15:R3|PEPTIDE1,PEPTIDE1,10:R3-18:R3$$$V2.0)	< 0.0014^2
CC(C)C[C@@H]1NC(=O)[C@H](CCC(=O)O)NC(=O)[C@@H]2CSSC[C@@H]3NC(=O)[C@H]([C@@H](C)O)NC(=O)[C@@H]4CCCN4C(=O)[C@H](CC(N)=O)NC(=O)[C@H](CSSC[C@H](NC(=O)[C@H](Cc4ccc(O)cc4)NC(=O)[C@H](CC(N)=O)NC(=O)[C@H](CO)NC(=O)[C@H](CO)NC(=O)[C@@H](N)CC(N)=O)C(=O)N2)NC(=O)[C@H](CSSC[C@@H](C(=O)N[C@@H](Cc2ccc(O)cc2)C(=O)O)NC(=O)CNC(=O)[C@H]([C@@H](C)O)NC3=O)NC1=O [Mutant A14T] (HELM PEPTIDE1{N.S.S.N.Y.C.C.E.L.C.C.N.P.T.C.T.G.C.Y}$PEPTIDE1,PEPTIDE1,6:R3-11:R3|PEPTIDE1,PEPTIDE1,7:R3-15:R3|PEPTIDE1,PEPTIDE1,10:R3-18:R3$$$V2.0)	< 0.0014^2
CC(C)C[C@@H]1NC(=O)[C@H](CCCNC(=N)N)NC(=O)[C@@H]2CSSC[C@@H]3NC(=O)[C@H](C)NC(=O)[C@@H]4CCCN4C(=O)[C@H](CC(N)=O)NC(=O)[C@H](CSSC[C@H](NC(=O)[C@H](Cc4ccc(O)cc4)NC(=O)[C@H](CC(N)=O)NC(=O)[C@H](CO)NC(=O)[C@H](CO)NC(=O)[C@@H](N)CC(N)=O)C(=O)N2)NC(=O)[C@H](CSSC[C@@H](C(=O)N[C@@H](Cc2ccc(O)cc2)C(=O)O)NC(=O)CNC(=O)[C@H]([C@@H](C)O)NC3=O)NC1=O [Mutant E08R] (HELM PEPTIDE1{N.S.S.N.Y.C.C.R.L.C.C.N.P.A.C.T.G.C.Y}$PEPTIDE1,PEPTIDE1,6:R3-11:R3|PEPTIDE1,PEPTIDE1,7:R3-15:R3|PEPTIDE1,PEPTIDE1,10:R3-18:R3$$$V2.0)	0.0021
CC(C)C[C@@H]1NC(=O)[C@H](CCC(=O)O)NC(=O)[C@@H]2CSSC[C@@H]3NC(=O)[C@H](C)NC(=O)[C@@H]4CCCN4C(=O)[C@H](CC(N)=O)NC(=O)[C@H](CSSC[C@H](NC(=O)[C@H](Cc4ccc(O)cc4)NC(=O)[C@H](CC(N)=O)NC(=O)[C@H](CO)NC(=O)[C@H](CO)NC(=O)[C@@H](N)CC(N)=O)C(=O)N2)NC(=O)[C@H](CSSC[C@@H](C(=O)N[C@@H](Cc2ccc(O)cc2)C(=O)O)NC(=O)[C@H](Cc2ccc(O)cc2)NC(=O)[C@H]([C@@H](C)O)NC3=O)NC1=O [Mutant G17Y] (HELM PEPTIDE1{N.S.S.N.Y.C.C.E.L.C.C.N.P.A.C.T.Y.C.Y}$PEPTIDE1,PEPTIDE1,6:R3-11:R3|PEPTIDE1,PEPTIDE1,7:R3-15:R3|PEPTIDE1,PEPTIDE1,10:R3-18:R3$$$V2.0)	0.0234
C[C@@H]1NC(=O)[C@@H]2CCCN2C(=O)[C@H](CC(N)=O)NC(=O)[C@@H]2CSSC[C@H](NC(=O)[C@H](Cc3ccc(O)cc3)NC(=O)[C@H](CC(N)=O)NC(=O)[C@H](CO)NC(=O)[C@H](CO)NC(=O)[C@@H](N)CC(N)=O)C(=O)N[C@H]3CSSC[C@H](NC1=O)C(=O)N[C@@H]([C@@H](C)O)C(=O)NCC(=O)N[C@H](C(=O)N[C@@H](Cc1ccc(O)cc1)C(=O)O)CSSC[C@H](NC(=O)CNC(=O)[C@H](CCC(=O)O)NC3=O)C(=O)N2 [Mutant L09G] (HELM PEPTIDE1{N.S.S.N.Y.C.C.E.G.C.C.N.P.A.C.T.G.C.Y}$PEPTIDE1,PEPTIDE1,6:R3-11:R3|PEPTIDE1,PEPTIDE1,7:R3-15:R3|PEPTIDE1,PEPTIDE1,10:R3-18:R3$$$V2.0)	< 0.0014^2
